PMC9144829, “Histone Deacetylase Inhibitory Activity and Antiproliferative Potential of New [6]-Shogaol Derivatives” (Molecules, 2022)
Like-named read-outs stand apart in the source and are kept apart here.

Key:
histone deacetylase = settings: Figure 1; read-out: IC50 (known histone deacetylase inhibitors); cited from earlier work
[1] = tested on: human cervical cancer (HeLa) cells; test: MTT assay, HeLa cells; format: cell-based; settings: for IC50: Homo sapiens, read-out: IC50 Values (Mean ± SD; n = 3), HeLa cells
Experimental: (§1) The MTT reduction assay was performed with non-cancer (Vero), human cervical cancer (HeLa), human colon cancer (HCT116), human breast adenocarcinoma cancer (MCF-7), and cholangiocarcinoma (H-69 […], KKU-100 and KKU-M213B) cell lines according to the previously described method. Briefly, cells were seeded in 96-well plates. The next day, cells were exposed to the selected compounds at various concentrations and incubated for 24, 48 and 72 h. After incubation, the culture medium was exchanged with 110 µL of MTT (0.5 mg/mL in PBS medium) and further incubated for 2 h. The amount of MTT formazan product was determined after dissolving in DMSO by measuring its absorbance with a microplate reader (Bio-Rad Laboratories, Hercules, CA, USA) at a test wavelength of 550 nm and a reference wavelength of 655 nm. The cell viability was expressed as a percentage of the viable cells of control culture conditions, and the IC50 values of each group were calculated.

H-69 cells = test: MTT assay, H-69 cells; format: cell-based; settings: Homo sapiens, NCI-H69, read-out: IC50 Values (Mean ± SD; n = 3)
Experimental: as §1

[2] = tested on: HDAC enzymes (HeLa nuclear extract, mixed-HDAC isoforms); test: Fluor-de-Lys HDAC activity assay kit, HeLa nuclear extract as source of HDAC enzymes; format: biochemical, human; settings: compounds at 100 µM
Experimental: The in vitro HDAC inhibitions of the obtained compounds were carried out with the assay kit containing mixed-HDAC isoforms. […] Therefore, the results were not fully related. However, compounds with good binding affinities should have the potential to be specific HDAC inhibitors for each isoform.
The semi-synthetic derivatives were evaluated for their ability to inhibit HDAC enzymes. Inhibition of HDAC activity in vitro was assessed using the Fluor-de-Lys HDAC activity assay kit (Biomol, Enzo Life Sciences International, Inc., Farmingdale, NY, USA). The HeLa nuclear extract provided with the kit was used as a source of HDAC enzymes for the in vitro study. TSA was used as the positive control. The HeLa nuclear extract, substrate, buffer and inhibitors were incubated. Deacetylation of the substrate was performed next by adding a developer to generate a fluorophore. The spectra Max Gemini XPS microplate spectrofluorometer (Molecular Devices, San Jose, CA, USA) was used to measure fluorescence signal with excitation at 360 nm and emission at 460 nm. A decrease in fluorescence signal indicated an inhibition of HDAC activity. Trichostatin A (TSA) was used as a positive control. All experiments were carried out in triplicate.

Vero cells = test: MTT assay, non-cancer Vero cells; format: cell-based; settings: Chlorocebus sabaeus, read-out: IC50 Values (Mean ± SD; n = 3)
Experimental: as §1

[3] = tested on: cholangiocarcinoma KKU-100 cells; test: MTT assay, KKU-100 cells; format: cell-based, human; settings: Homo sapiens, KKU100, read-out: IC50 Values (Mean ± SD; n = 3)
Experimental: as §1

[4] = tested on: human breast adenocarcinoma cancer (MCF-7) cells; test: MTT assay, MCF-7 cells; format: cell-based; settings: Homo sapiens, MCF7, read-out: IC50 Values (Mean ± SD; n = 3)
Experimental: as §1

[5] = tested on: human colon cancer (HCT116) cells; test: MTT assay, HCT116 cells; format: cell-based; settings: Homo sapiens, HCT-116, read-out: IC50 Values (Mean ± SD; n = 3)
Experimental: as §1

[6] = tested on: cholangiocarcinoma KKU-M213B cells; test: MTT assay, KKU-M213B cells; format: cell-based, human; settings: Homo sapiens, read-out: IC50 Values (Mean ± SD; n = 3)
Experimental: as §1

| IC50 ([1]; 24 h) [µM] | IC50 ([1]; 48 h) [µM] | IC50 ([1]; 72 h) [µM] | %HDAC Inhibition [2] [%] | IC50 ([4]; 24 h) [µM] | IC50 ([4]; 48 h) [µM] | IC50 ([4]; 72 h) [µM] | IC50 ([5]; 24 h) [µM] | IC50 ([5]; 48 h) [µM] | IC50 ([5]; 72 h) [µM] | SMILES | IC50 (histone deacetylase) [µM] | IC50 (H-69 cells; 24 h) [µM] | IC50 (H-69 cells; 48 h) [µM] | IC50 (H-69 cells; 72 h) [µM] | IC50 (Vero cells; 24 h) [µM] | IC50 (Vero cells; 48 h) [µM] | IC50 (Vero cells; 72 h) [µM] | IC50 ([3]; 24 h) [µM] | IC50 ([3]; 48 h) [µM] | IC50 ([3]; 72 h) [µM] | other results |
| --- | --- | --- | --- | --- | --- | --- | --- | --- | --- | --- | --- | --- | --- | --- | --- | --- | --- | --- | --- | --- | --- |
| – | – | – | – | – | – | – | – | – | – | COc1cc(CNC(=O)CCCCC(O)CC(C)C)ccc1O (stereo not drawn) [Hydroxycapsaicin (2), hydroxycapsaicin] | 72 | – | – | – | – | – | – | – | – | – | – |
| 16.9 ± 0.8 | 9.26 ± 0.46 | 8.1 ± 0.29 | 86 | 24.8 ± 0.66 | 16.54 ± 0.15 | 13.39 ± 0.07 | 17.3 ± 0.57 | 12.4 ± 0.15 | 12.3 ± 0.13 | CCCCC/C=C/C(=O)CCc1ccc(O)c(OC)c1 [Compound 4, [6]-shogaol] | 50 | 38.4 ± 0.84 | 32 ± 0.55 | 24.78 ± 0.24 | 37.6 ± 0.94 | 36 ± 0.95 | 23.3 ± 0.24 | 27.64 ± 0.26 | 18.9 ± 0.48 | 17.04 ± 0.04 | selectivity towards HeLa cells than non-cancer cells ([1]; HeLa versus non-cancer cells): 3 fold; IC50 ([6]; 24 h): 17.95 ± 0.05 µM; IC50 ([6]; 48 h): 12.9 ± 0.47 µM; IC50 ([6]; 72 h): 9.91 ± 0.17 µM |
| 51.6 ± 1.92 | 37.2 ± 1.33 | 33.7 ± 0.76 | 80 | 104 ± 3.17 | 57.8 ± 2.37 | 25.5 ± 1.15 | 40.1 ± 1.47 | 28.3 ± 0.79 | 26.63 ± 0.15 | CCCCC/C=C/C(CCc1ccc(O)c(OC)c1)=N\Nc1nc2ccccc2s1 [Compound 4d, 4-((3Z,4E)-3-(2-(Benzo[d]thiazol-2-yl)hydrazono)dec-4-en-1-yl)-2-methoxyphenol] | – | 51.4 ± 1.51 | 41.4 ± 0.61 | 29.4 ± 0.89 | 170 ± 6.98 | 70 ± 1.27 | 60.1 ± 1.69 | 41.6 ± 1.24 | 31.5 ± 0.8 | 25.75 ± 0.2 | IC50 ([6]; 24 h): 39.84 ± 0.29 µM; IC50 ([6]; 48 h): 20.6 ± 0.18 µM; IC50 ([6]; 72 h): 18.2 ± 0.75 µM |
| – | – | – | – | – | – | – | – | – | – | CCCCC[C@H](O)CC(=O)CCc1ccc(O)c(OC)c1 [[6]-Gingerol (3), [6]-gingerol] | 61 | – | – | – | – | – | – | – | – | – | – |
